# According to patent US8192962B2, “Processes for detecting toxic substances” (Daikin Industries, Ltd., priority 2001, dated 2012):
# System: Transport facilitation protein genes
# Test: DNA chip mRNA expression in yeast, transport facilitation protein genes (Table 5)
# Type: cell-based, Saccharomyces cerevisiae S288C
# Summary of the method: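 Values are treated/untreated fluorescence ratios from a whole-genome yeast DNA chip hybridized over 12 hours at 65° C with Cy3- or Cy5-labelled cDNA from poly(A) mRNA. Log-phase S288C yeast in YPD at 25° C had received a single toxic chemical for two hours, dosed to slow growth without killing.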
compound,measurement,setting,value
"Cl[C@H]1[C@H](Cl)[C@@H](Cl)[C@@H](Cl)[C@H](Cl)[C@H]1Cl [(7), γ-hexachlorocyclohexane]",The level of expressed mRNA in the presence of chemical substance/The level of expressed mRNA in the absence of chemical substance,yeast gene YBL030C,0.9
same,The level of expressed mRNA in the presence of chemical substance/The level of expressed mRNA in the absence of chemical substance,yeast gene YBL099W,0.9
same,The level of expressed mRNA in the presence of chemical substance/The level of expressed mRNA in the absence of chemical substance,yeast gene YBR052C,3.0
same,The level of expressed mRNA in the presence of chemical substance/The level of expressed mRNA in the absence of chemical substance,yeast gene YBR127C,0.9
same,The level of expressed mRNA in the presence of chemical substance/The level of expressed mRNA in the absence of chemical substance,yeast gene YBR132C,1.1
same,The level of expressed mRNA in the presence of chemical substance/The level of expressed mRNA in the absence of chemical substance,yeast gene YBR207W,4.3
same,The level of expressed mRNA in the presence of chemical substance/The level of expressed mRNA in the absence of chemical substance,yeast gene YBR293W,0.9
same,The level of expressed mRNA in the presence of chemical substance/The level of expressed mRNA in the absence of chemical substance,yeast gene YBR294W,1.1
same,The level of expressed mRNA in the presence of chemical substance/The level of expressed mRNA in the absence of chemical substance,yeast gene YBR295W,1.6
same,The level of expressed mRNA in the presence of chemical substance/The level of expressed mRNA in the absence of chemical substance,yeast gene YBR298C,1.7
same,The level of expressed mRNA in the presence of chemical substance/The level of expressed mRNA in the absence of chemical substance,yeast gene YCL025C,0.7
same,The level of expressed mRNA in the presence of chemical substance/The level of expressed mRNA in the absence of chemical substance,yeast gene YCL038C,1.5
same,The level of expressed mRNA in the presence of chemical substance/The level of expressed mRNA in the absence of chemical substance,yeast gene YCR024C-A,0.8
same,The level of expressed mRNA in the presence of chemical substance/The level of expressed mRNA in the absence of chemical substance,yeast gene YCR037C,1.0
same,The level of expressed mRNA in the presence of chemical substance/The level of expressed mRNA in the absence of chemical substance,yeast gene YCR098C,1.2
same,The level of expressed mRNA in the presence of chemical substance/The level of expressed mRNA in the absence of chemical substance,yeast gene YDL128W,0.9
same,The level of expressed mRNA in the presence of chemical substance/The level of expressed mRNA in the absence of chemical substance,yeast gene YDL198C,1.0
same,The level of expressed mRNA in the presence of chemical substance/The level of expressed mRNA in the absence of chemical substance,yeast gene YDL210W,0.8
same,The level of expressed mRNA in the presence of chemical substance/The level of expressed mRNA in the absence of chemical substance,yeast gene YDL245C,1.2
same,The level of expressed mRNA in the presence of chemical substance/The level of expressed mRNA in the absence of chemical substance,yeast gene YDR038C,0.7
same,The level of expressed mRNA in the presence of chemical substance/The level of expressed mRNA in the absence of chemical substance,yeast gene YDR039C,0.8
same,The level of expressed mRNA in the presence of chemical substance/The level of expressed mRNA in the absence of chemical substance,yeast gene YDR086C,2.0
same,The level of expressed mRNA in the presence of chemical substance/The level of expressed mRNA in the absence of chemical substance,yeast gene YDR270W,1.7
same,The level of expressed mRNA in the presence of chemical substance/The level of expressed mRNA in the absence of chemical substance,yeast gene YDR298C,1.0
same,The level of expressed mRNA in the presence of chemical substance/The level of expressed mRNA in the absence of chemical substance,yeast gene YDR342C,0.8
same,The level of expressed mRNA in the presence of chemical substance/The level of expressed mRNA in the absence of chemical substance,yeast gene YDR343C,0.7
same,The level of expressed mRNA in the presence of chemical substance/The level of expressed mRNA in the absence of chemical substance,yeast gene YDR345C,1.1
same,The level of expressed mRNA in the presence of chemical substance/The level of expressed mRNA in the absence of chemical substance,yeast gene YDR387C,1.3
same,The level of expressed mRNA in the presence of chemical substance/The level of expressed mRNA in the absence of chemical substance,yeast gene YDR497C,0.5
same,The level of expressed mRNA in the presence of chemical substance/The level of expressed mRNA in the absence of chemical substance,yeast gene YEL027W,0.8
same,The level of expressed mRNA in the presence of chemical substance/The level of expressed mRNA in the absence of chemical substance,yeast gene YEL063C,0.7
same,The level of expressed mRNA in the presence of chemical substance/The level of expressed mRNA in the absence of chemical substance,yeast gene YEL065W,4.3
same,The level of expressed mRNA in the presence of chemical substance/The level of expressed mRNA in the absence of chemical substance,yeast gene YER053C,2.8
same,The level of expressed mRNA in the presence of chemical substance/The level of expressed mRNA in the absence of chemical substance,yeast gene YFL011W,0.8
same,The level of expressed mRNA in the presence of chemical substance/The level of expressed mRNA in the absence of chemical substance,yeast gene YFL041W,3.4
same,The level of expressed mRNA in the presence of chemical substance/The level of expressed mRNA in the absence of chemical substance,yeast gene YFL050C,0.8
same,The level of expressed mRNA in the presence of chemical substance/The level of expressed mRNA in the absence of chemical substance,yeast gene YFL054C,1.1
same,The level of expressed mRNA in the presence of chemical substance/The level of expressed mRNA in the absence of chemical substance,yeast gene YGL006W,1.3
same,The level of expressed mRNA in the presence of chemical substance/The level of expressed mRNA in the absence of chemical substance,yeast gene YGL008C,1.4
same,The level of expressed mRNA in the presence of chemical substance/The level of expressed mRNA in the absence of chemical substance,yeast gene YGL104C,1.2
same,The level of expressed mRNA in the presence of chemical substance/The level of expressed mRNA in the absence of chemical substance,yeast gene YGL167C,1.2
same,The level of expressed mRNA in the presence of chemical substance/The level of expressed mRNA in the absence of chemical substance,yeast gene YGL255W,1.0
same,The level of expressed mRNA in the presence of chemical substance/The level of expressed mRNA in the absence of chemical substance,yeast gene YGR055W,0.6
same,The level of expressed mRNA in the presence of chemical substance/The level of expressed mRNA in the absence of chemical substance,yeast gene YGR065C,2.4
same,The level of expressed mRNA in the presence of chemical substance/The level of expressed mRNA in the absence of chemical substance,yeast gene YGR082W,0.9
same,The level of expressed mRNA in the presence of chemical substance/The level of expressed mRNA in the absence of chemical substance,yeast gene YGR096W,0.9
same,The level of expressed mRNA in the presence of chemical substance/The level of expressed mRNA in the absence of chemical substance,yeast gene YGR138C,0.7
same,The level of expressed mRNA in the presence of chemical substance/The level of expressed mRNA in the absence of chemical substance,yeast gene YGR191W,0.7
same,The level of expressed mRNA in the presence of chemical substance/The level of expressed mRNA in the absence of chemical substance,yeast gene YGR197C,1.3
same,The level of expressed mRNA in the presence of chemical substance/The level of expressed mRNA in the absence of chemical substance,yeast gene YGR224W,0.4
